From paper PMC9189845, “Structure–Activity Relationships of 8-Hydroxyquinoline-Derived Mannich Bases with Tertiary Amines Targeting Multidrug-Resistant Cancer” (Journal of Medicinal Chemistry, 2022)
Like-named read-outs stand apart in the source and are kept apart here.

Key:
MES-SA cells = test: PrestoBlue viability assay, MES-SA cells; details: Homo sapiens, MES-SA
MES-SA/Dx5 cells = test: PrestoBlue viability assay, MES-SA/Dx5 cells (MDR, P-gp positive); details: for IC50: Homo sapiens; for SR_TQ: selectivity ratio MES-SA vs MES-SA/Dx5, with TQ; for SR: selectivity ratio MES-SA vs MES-SA/Dx5, without TQ; for SR (MES-SA_TQ / Dx5_TQ) (values in parentheses): fraction of IC50 in P-gp negative vs positive cells, presence of 1 μM TQ
A431 cells = test: PrestoBlue viability assay, A431 cells; details: Homo sapiens
A431-B1 cells = test: PrestoBlue viability assay, A431-B1 (A431-ABCB1) cells
[1] = 72 h, read-out: IC50 / μM MES-SA, absence of TQ, 72 h incubation
[2] = read-out: IC50 / μM MES-SA (values in parentheses), presence of 1 μM P-gp inhibitor tariquidar (TQ)
[3] = read-out: pIC50 value MES-SA+TQ, MES-SA cells, with TQ (converted)
[4] = read-out: pIC50 value MES-SA, MES-SA cells, without TQ (converted)
[5] = MES-SA/Dx5, 72 h, read-out: IC50 / μM MES-SA/Dx5, absence of TQ, 72 h incubation
[6] = MES-SA/Dx5, read-out: IC50 / μM MES-SA/Dx5 (values in parentheses), presence of 1 μM P-gp inhibitor tariquidar (TQ)
[7] = MES-SA/Dx5, read-out: pIC50 value MES-SA/Dx5 + TQ, MES-SA/Dx5 cells, with TQ (converted)
[8] = MES-SA/Dx5, read-out: pIC50 value MES-SA/Dx5, MES-SA/Dx5 cells, without TQ (converted)
[9] = A-431, 72 h, read-out: IC50 / µM A431, 72 h incubation
[10] = A-431, read-out: pIC50 A431, SARM figure (converted)
[11] = 72 h, read-out: IC50 / µM A431-B1, 72 h incubation
[12] = read-out: pIC50 A431-B1, SARM figure (converted)
[13] = read-out: pIC50 MES-SA_TQ, presence of 1 μM TQ (converted), SARM figure
[14] = MES-SA/Dx5, read-out: pIC50 Dx5_TQ, presence of 1 μM TQ (converted), SARM figure
[15] = read-out: pIC50 MES-SA, absence of TQ (converted), SARM figure

IC50 (A431 cells; [9]) [µM] | IC50 (A431 cells; [10]) [µM] | IC50 (A431-B1 cells; [11]) [µM] | IC50 (A431-B1 cells; [12]) [µM] | SMILES | IC50 (MES-SA cells; [1]) [µM] | IC50 (MES-SA cells; [2]) [µM] | IC50 (MES-SA cells; [3]) [µM] | IC50 (MES-SA cells; [4]) [µM] | IC50 (MES-SA/Dx5 cells; [5]) [µM] | IC50 (MES-SA/Dx5 cells; [6]) [µM] | IC50 (MES-SA/Dx5 cells; [7]) [µM] | IC50 (MES-SA/Dx5 cells; [8]) [µM] | SR_TQ (MES-SA/Dx5 cells) | SR (MES-SA/Dx5 cells) | IC50 (MES-SA cells; [13]) [µM] | IC50 (MES-SA/Dx5 cells; [14]) [µM] | SR (MES-SA_TQ / Dx5_TQ) (values in parentheses) (MES-SA/Dx5 cells) | IC50 (MES-SA cells; [15]) [µM]
22.6 ± 4.32 | 22.4 | 3.53 ± 0.14 | 3.55 | COCc1cc(CN2CCCCC2)c(O)c2ncccc12 [Compound 21] | 9.35 ± 0.61 | 9.56 ± 0.39 | 9.55 | 9.33 | 0.92 ± 0.11 | 7.59 ± 0.08 | 7.59 | 0.912 | 1.26 | 10.19 |  |  |  | 
25.2 ± 8.88 | 23.4 | 4.17 ± 1.49 | 3.89 | CCOCc1cc(CN2CCCCC2)c(O)c2ncccc12 [Compound 22] | 8.77 ± 1.07 | 9.13 ± 0.32 | 9.12 | 8.71 | 0.79 ± 0.14 | 7.08 ± 0.23 | 7.08 | 0.776 | 1.29 | 11.12 |  |  |  | 
6.72 ± 0.57 | 6.76 | 1.53 ± 0.55 | 1.45 | CCCOCc1cc(CN2CCCCC2)c(O)c2ncccc12 [Compound 23] | 3.72 ± 0.25 | 3.55 ± 0.08 | 3.55 | 3.72 | 0.34 ± 0.02 | 2.4 ± 0.04 | 2.4 | 0.339 | 1.48 | 10.97 | 3.8 | 2.75 |  | 
8.93 ± 1.44 | 8.71 | 1.46 ± 0.08 | 1.45 | CC1CCN(Cc2cc(Cl)c3cccnc3c2O)CC1 [Compound 25] | 2.7 ± 0.21 | 2.88 | 2.88 | 2.69 | 0.26 ± 0.04 | 1.59 | 1.58 | 0.257 | 1.82 | 10.37 |  |  |  | 
14.5 ± 3.84 | 13.8 | 2.29 ± 0.28 | 2.29 | COCc1cc(CN2CCC(C)CC2)c(O)c2ncccc12 [Compound 26] | 6.2 ± 0.66 | 6.47 ± 0.41 | 6.46 | 6.17 | 0.58 ± 0.05 | 4.68 ± 0.16 | 4.68 | 0.575 | 1.38 | 10.73 |  |  |  | 
11.8 ± 4.34 | 11 | 2.37 ± 0.87 | 2.24 | CCOCc1cc(CN2CCC(C)CC2)c(O)c2ncccc12 [Compound 27] | 4.09 ± 0.42 | 4.48 ± 0.37 | 4.47 | 4.07 | 0.47 ± 0.05 | 3.05 ± 0.47 | 3.02 | 0.468 | 1.47 | 8.71 |  |  |  | 
7.24 ± 1.78 | 7.08 | 1.72 ± 0.15 | 1.7 | CC1CCN(Cc2cc(COC(C)C)c3cccnc3c2O)CC1 [Compound 28] | 2.84 ± 0.35 | 3.02 ± 0.09 | 3.02 | 2.82 | 0.36 ± 0.04 | 2.15 ± 0.22 | 2.14 | 0.355 | 1.41 | 7.96 |  |  |  | 
9.3 ± 3.05 | 8.91 | 2.89 ± 0.25 | 2.88 | Oc1c(CN2CCOCC2)cc(Br)c2cccnc12 [Compound 30] | 1.13 ± 0.13 | 1.32 ± 0.01 | 1.32 | 1.12 | 0.46 ± 0.04 | 0.85 ± 0.06 | 0.851 | 0.457 | 1.54 | 2.46 |  |  |  | 
34.4 ± 8.42 | 33.1 | 12.1 ± 1.47 | 12 | COCc1cc(CN2CCOCC2)c(O)c2ncccc12 [Compound 31] | 9.89 ± 1.52 | 8.97 ± 1.01 | 8.91 | 9.77 | 5.64 ± 0.45 | 7.77 ± 0.31 | 7.76 | 5.62 | 1.15 | 1.75 |  |  |  | 
24.7 ± 10.9 | 22.4 | 5.58 ± 0.58 | 5.5 | CCOCc1cc(CN2CCOCC2)c(O)c2ncccc12 [Compound 32] | 5.85 ± 0.54 |  |  | 5.75 | 3 ± 0.3 |  |  | 2.95 |  | 1.95 |  |  |  | 
13.2 ± 6.23 | 12 | 4.76 ± 0.23 | 4.79 | CC(C)OCc1cc(CN2CCOCC2)c(O)c2ncccc12 [Compound 33] | 3.12 ± 0.6 |  |  | 3.09 | 1.74 ± 0.29 |  |  | 1.7 |  | 1.79 |  |  |  | 
77.2 ± 11.6 | 75.9 | 26.49 ± 0.12 | 26.3 | COCc1cc(CN2CCN(C)CC2)c(O)c2ncccc12 [Compound 35] | 24.8 ± 3.36 | 30.2 ± 0.64 | 30.2 | 24.5 | 8.82 ± 1.41 | 27.54 ± 0.13 |  | 8.71 | 1.1 | 2.81 |  |  | 1.10 | 
66.6 ± 20.8 | 63.1 | 24.1 ± 10.1 | 22.4 | CCOCc1cc(CN2CCN(C)CC2)c(O)c2ncccc12 [Compound 36] | 23 ± 1.46 | 22.9 ± 1.08 | 22.9 | 22.9 | 7.43 ± 0.46 | 17.1 ± 2.19 | 17 | 7.41 | 1.34 | 3.09 | 22.9 |  |  | 22.9
19.9 ± 9.14 | 18.2 | 6.19 ± 1.73 | 5.89 | CCCOCc1cc(CN2CCN(C)CC2)c(O)c2ncccc12 [Compound 37] | 13.5 ± 0.86 | 12.3 ± 0.28 | 12.3 | 13.5 | 3.24 ± 0.19 | 7.41 ± 0.01 | 7.41 | 3.24 | 1.66 | 4.17 |  |  |  | 
9.99 ± 4.76 | 8.91 | 2.33 ± 0.35 | 2.29 | COCc1cc(CN2CCN(c3ccccc3)CC2)c(O)c2ncccc12 [Compound 39] | 1.08 ± 0.15 | 1.2 ± 0.05 | 1.2 | 1.07 | 0.48 ± 0.07 | 0.85 ± 0.08 | 0.851 | 0.479 | 1.41 | 2.23 |  |  |  | 
6.24 ± 1.95 | 5.89 | 1.94 ± 0.19 | 1.91 | CCOCc1cc(CN2CCN(c3ccccc3)CC2)c(O)c2ncccc12 [Compound 40] | 1.27 ± 0.15 | 1.62 ± 0.005 | 1.62 | 1.26 | 0.34 ± 0.04 | 1.05 ± 0.1 | 1.05 | 0.339 | 1.54 | 3.72 |  |  |  | 
5.69 ± 0.76 | 5.62 | 2.41 ± 0.37 | 2.4 | CCCOCc1cc(CN2CCN(c3ccccc3)CC2)c(O)c2ncccc12 [Compound 41] | 1.45 ± 0.13 | 1.45 ± 0.07 | 1.45 | 1.45 | 0.24 ± 0.03 | 0.83 ± 0.01 | 0.832 | 0.24 | 1.74 | 6.01 | 1.45 | 0.955 |  | 1.45
7.35 ± 2.49 | 6.92 | 1.84 ± 0.48 | 1.78 | CC(C)OCc1cc(CN2CCN(c3ccccc3)CC2)c(O)c2ncccc12 [Compound 42] | 1.06 ± 0.19 | 1.01 ± 0.16 | 1 | 1.05 | 0.25 ± 0.05 | 0.66 ± 0.13 | 0.646 | 0.245 | 1.54 | 4.24 |  |  |  | 
9.41 ± 1.41 | 9.33 | 8.06 ± 2.89 | 7.59 | Oc1c(CN2CCN(c3ccccn3)CC2)cc(Cl)c2cccnc12 [Compound 43] | 2.19 ± 0.12 | 2.19 ± 0.17 | 2.19 | 2.19 | 0.33 ± 0.05 | 1.23 ± 0.05 |  | 0.331 | 1.78 | 6.55 | 2.19 |  |  | 2.19
4.04 ± 0.39 | 3.98 | 3.25 ± 0.94 | 3.09 | Oc1c(CN2CCN(c3ccc(F)cc3)CC2)cc(Cl)c2cccnc12 [Compound 44] | 1.61 ± 0.3 | 1.75 ± 0.16 | 1.74 | 1.58 | 0.25 ± 0.01 | 0.65 ± 0.05 | 0.646 | 0.245 | 2.7 | 6.56 |  |  | 2.70 | 
